# Test results from ChEMBL document CHEMBL5154644, “Design, Synthesis, and Structure-Activity Relationship Optimization of Pyrazolopyrimidine Amide Inhibitors of Phosphoinositide 3-Kinase γ (PI3Kγ)” (J Med Chem, 2022).
# Target: T1, Phosphatidylinositol 4,5-bisphosphate 3-kinase catalytic subunit gamma isoform (Homo sapiens, UniProt P48736)
# Assay: Inhibition of PI3Kgamma (unknown origin) in […] stimulated human THP-1 cells assessed as reduction in Akt phosphorylation level at Ser473 residue preincubated for 60 mins followed by rhMCP-1 stimulation and measured after 2 mins by AlphaLisa assay
# Format: cell-based
# Details: not given
# T1 sequence (P48736 whole entry, canonical isoform): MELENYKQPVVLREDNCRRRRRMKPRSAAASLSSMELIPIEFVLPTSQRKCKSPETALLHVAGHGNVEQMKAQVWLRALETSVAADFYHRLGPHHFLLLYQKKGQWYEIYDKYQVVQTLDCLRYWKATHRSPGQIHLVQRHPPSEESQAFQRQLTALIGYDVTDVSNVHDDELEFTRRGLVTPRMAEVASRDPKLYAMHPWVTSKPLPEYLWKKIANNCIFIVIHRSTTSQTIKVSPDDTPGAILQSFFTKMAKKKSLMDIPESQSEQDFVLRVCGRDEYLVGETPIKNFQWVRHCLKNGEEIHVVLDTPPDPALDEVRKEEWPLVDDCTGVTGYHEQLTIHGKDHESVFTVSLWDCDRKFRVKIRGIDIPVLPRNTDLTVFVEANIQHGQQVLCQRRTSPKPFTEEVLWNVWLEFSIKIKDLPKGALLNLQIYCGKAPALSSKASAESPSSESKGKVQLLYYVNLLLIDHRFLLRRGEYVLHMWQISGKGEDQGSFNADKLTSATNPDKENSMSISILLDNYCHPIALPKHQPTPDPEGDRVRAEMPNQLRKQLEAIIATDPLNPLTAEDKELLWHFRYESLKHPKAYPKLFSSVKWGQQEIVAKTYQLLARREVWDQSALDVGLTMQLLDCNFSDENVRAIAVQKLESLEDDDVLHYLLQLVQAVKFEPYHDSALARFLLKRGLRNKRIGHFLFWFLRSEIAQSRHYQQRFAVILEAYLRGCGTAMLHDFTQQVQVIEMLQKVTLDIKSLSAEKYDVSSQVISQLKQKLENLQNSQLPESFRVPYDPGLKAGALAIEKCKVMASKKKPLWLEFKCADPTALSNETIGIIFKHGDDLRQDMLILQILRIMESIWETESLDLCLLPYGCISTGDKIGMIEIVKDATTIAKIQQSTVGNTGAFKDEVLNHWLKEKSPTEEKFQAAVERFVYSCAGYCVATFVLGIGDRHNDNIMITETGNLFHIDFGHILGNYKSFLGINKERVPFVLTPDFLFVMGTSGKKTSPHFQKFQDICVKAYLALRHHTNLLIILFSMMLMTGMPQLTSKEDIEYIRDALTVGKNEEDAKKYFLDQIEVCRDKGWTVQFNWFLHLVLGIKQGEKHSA
row,SMILES,IC50 [nM]
1,CC[C@H](N1Cc2cc(-c3ccn4nc(N)c(C(=O)NC5CC5)c4n3)cc(NS(C)(=O)=O)c2C1=O)C(F)(F)F,31
2,Cc1cc(-c2ccn3ncc(-c4cnn(C)c4)c3n2)cc2c1C(=O)N([C@@H](C)C1CC1)C2,468
3,Cc1cc(-c2ccn3nc(N)c(C(=O)N[C@H]4CC[C@H](C(=O)O)CC4)c3n2)cc2c1C(=O)N([C@@H](C)C1CC1)C2,397
4,C[C@@H](C1CC1)N1Cc2cc(-c3ccn4nc(N)c(C(=O)NC5CC5)c4n3)cc(OC(F)F)c2C1=O,71

# Now from value to molecule:
row,IC50 [nM],SMILES
1,276,Cc1cc(-c2ccn3nc(N)c(C(=O)N[C@H]4CC[C@H](N)CC4)c3n2)cc2c1C(=O)N([C@@H](C)C1CC1)C2
2,96,CNS(=O)(=O)c1cc(-c2ccn3nc(N)c(C(=O)N[C@@H](CO)C4CC4)c3n2)cc2c1C(=O)N([C@@H](C)C(F)(F)F)C2

# Target: T1, Phosphatidylinositol 4,5-bisphosphate 3-kinase catalytic subunit gamma isoform
# Assay: Inhibition of PI3Kgamma (unknown origin) using PIP2 as substrate preincubated for 1 hr followed by substrate addition and measured after 60 mins in presence of ATP by ADP-glo assay
# Details: not given
row,SMILES,IC50 [nM]
1,CC[C@H](N1Cc2cc(-c3ccn4nc(N)c(C(=O)NC5CC5)c4n3)cc(NS(C)(=O)=O)c2C1=O)C(F)(F)F,3.3
2,Cc1cc(-c2ccn3nc(N)c(C(=O)N[C@H]4CC[C@H](C(=O)O)CC4)c3n2)cc2c1C(=O)N([C@@H](C)C1CC1)C2,2.1
3,C[C@@H](C1CC1)N1Cc2cc(-c3ccn4nc(N)c(C(=O)NC5CC5)c4n3)cc(OC(F)F)c2C1=O,1.8

# The remaining lines, values ahead:
row,IC50 [nM],SMILES
1,2,Cc1cc(-c2ccn3nc(N)c(C(=O)N[C@H]4CC[C@H](N)CC4)c3n2)cc2c1C(=O)N([C@@H](C)C1CC1)C2
2,1.3,CNS(=O)(=O)c1cc(-c2ccn3nc(N)c(C(=O)N[C@@H](CO)C4CC4)c3n2)cc2c1C(=O)N([C@@H](C)C(F)(F)F)C2

# System: not listed separately
# Assay: Metabolic stability in human hepatocytes assessed as intrinsic clearance per 10^6 cells at 0.5 uM by LC-MS/MS analysis
# Format: ADME, cell-based, Hepatocyte
# Details: read-out: CLH
row,SMILES,hepatocyte CLint at 0.5 µM [µL/min/1e6 cells]
1,CC[C@H](N1Cc2cc(-c3ccn4nc(N)c(C(=O)NC5CC5)c4n3)cc(NS(C)(=O)=O)c2C1=O)C(F)(F)F,2.91
2,Cc1cc(-c2ccn3ncc(-c4cnn(C)c4)c3n2)cc2c1C(=O)N([C@@H](C)C1CC1)C2,27.2
3,C[C@@H](C1CC1)N1Cc2cc(-c3ccn4nc(N)c(C(=O)NC5CC5)c4n3)cc(OC(F)F)c2C1=O,40.4

# More lines, now with the values ahead:
row,hepatocyte CLint at 0.5 µM [µL/min/1e6 cells],SMILES
1,4.74,Cc1cc(-c2ccn3nc(N)c(C(=O)N[C@H]4CC[C@H](N)CC4)c3n2)cc2c1C(=O)N([C@@H](C)C1CC1)C2
2,1.61,CNS(=O)(=O)c1cc(-c2ccn3nc(N)c(C(=O)N[C@@H](CO)C4CC4)c3n2)cc2c1C(=O)N([C@@H](C)C(F)(F)F)C2

# System: not listed separately
# Assay: Metabolic stability in rat hepatocyte assessed as intrinsic clearance per 10^8 cells at 0.5 uM by LC-MS/MS analysis
# Format: ADME, cell-based
# Details: hepatocytes
row,SMILES,hepatocyte intrinsic clearance [µL/min]
1,CC[C@H](N1Cc2cc(-c3ccn4nc(N)c(C(=O)NC5CC5)c4n3)cc(NS(C)(=O)=O)c2C1=O)C(F)(F)F,6.67
2,Cc1cc(-c2ccn3ncc(-c4cnn(C)c4)c3n2)cc2c1C(=O)N([C@@H](C)C1CC1)C2,10.3
3,C[C@@H](C1CC1)N1Cc2cc(-c3ccn4nc(N)c(C(=O)NC5CC5)c4n3)cc(OC(F)F)c2C1=O,12.6

# Further lines, results first:
row,hepatocyte intrinsic clearance [µL/min],SMILES
1,19.3,Cc1cc(-c2ccn3nc(N)c(C(=O)N[C@H]4CC[C@H](N)CC4)c3n2)cc2c1C(=O)N([C@@H](C)C1CC1)C2
2,3.82,CNS(=O)(=O)c1cc(-c2ccn3nc(N)c(C(=O)N[C@@H](CO)C4CC4)c3n2)cc2c1C(=O)N([C@@H](C)C(F)(F)F)C2

# Target: Phosphatidylinositol 4,5-bisphosphate 3-kinase catalytic subunit alpha isoform (Homo sapiens, UniProt P42336)
# Assay: Inhibition of PI3Kalpha (unknown origin) using PIP2 as substrate preincubated for 1 hr followed by substrate addition and measured after 60 mins in presence of ATP by ADP-glo assay
# Details: not given
# Phosphatidylinositol 4,5-bisphosphate 3-kinase catalytic subunit alpha isoform, sequence (P42336 whole entry, canonical isoform): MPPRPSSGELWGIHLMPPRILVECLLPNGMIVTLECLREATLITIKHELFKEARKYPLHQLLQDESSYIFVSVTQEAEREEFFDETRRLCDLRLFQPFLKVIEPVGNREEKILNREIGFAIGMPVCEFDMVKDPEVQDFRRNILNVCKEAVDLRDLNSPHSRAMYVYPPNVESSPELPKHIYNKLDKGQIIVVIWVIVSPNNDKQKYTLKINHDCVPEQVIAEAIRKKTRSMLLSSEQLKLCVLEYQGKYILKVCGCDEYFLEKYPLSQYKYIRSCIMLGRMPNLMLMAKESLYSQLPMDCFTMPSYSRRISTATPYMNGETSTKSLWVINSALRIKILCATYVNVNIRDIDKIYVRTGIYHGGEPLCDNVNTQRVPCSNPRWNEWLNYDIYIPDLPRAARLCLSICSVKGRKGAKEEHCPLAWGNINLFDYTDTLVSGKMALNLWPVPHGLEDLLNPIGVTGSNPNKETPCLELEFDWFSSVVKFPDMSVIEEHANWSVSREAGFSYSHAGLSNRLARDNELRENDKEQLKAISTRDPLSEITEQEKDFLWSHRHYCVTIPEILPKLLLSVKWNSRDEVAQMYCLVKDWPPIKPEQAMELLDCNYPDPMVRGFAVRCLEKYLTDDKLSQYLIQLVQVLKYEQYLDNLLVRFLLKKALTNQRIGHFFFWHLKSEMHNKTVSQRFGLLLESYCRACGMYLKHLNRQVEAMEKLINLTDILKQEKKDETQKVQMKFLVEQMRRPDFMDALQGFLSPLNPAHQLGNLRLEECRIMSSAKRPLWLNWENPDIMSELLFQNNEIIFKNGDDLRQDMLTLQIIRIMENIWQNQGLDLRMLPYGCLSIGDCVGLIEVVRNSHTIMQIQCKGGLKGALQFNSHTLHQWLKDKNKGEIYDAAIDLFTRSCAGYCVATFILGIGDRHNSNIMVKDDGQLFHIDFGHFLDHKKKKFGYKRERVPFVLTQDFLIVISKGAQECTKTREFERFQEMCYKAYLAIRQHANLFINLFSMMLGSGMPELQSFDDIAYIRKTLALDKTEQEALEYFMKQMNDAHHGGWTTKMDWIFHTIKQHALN
row,SMILES,IC50 [nM]
1,CC[C@H](N1Cc2cc(-c3ccn4nc(N)c(C(=O)NC5CC5)c4n3)cc(NS(C)(=O)=O)c2C1=O)C(F)(F)F,2830
2,Cc1cc(-c2ccn3nc(N)c(C(=O)N[C@H]4CC[C@H](C(=O)O)CC4)c3n2)cc2c1C(=O)N([C@@H](C)C1CC1)C2,29
3,C[C@@H](C1CC1)N1Cc2cc(-c3ccn4nc(N)c(C(=O)NC5CC5)c4n3)cc(OC(F)F)c2C1=O,602

# Other lines, results leading:
row,IC50 [nM],SMILES
1,> 10000,Cc1cc(-c2ccn3nc(N)c(C(=O)N[C@H]4CC[C@H](N)CC4)c3n2)cc2c1C(=O)N([C@@H](C)C1CC1)C2
2,363,CNS(=O)(=O)c1cc(-c2ccn3nc(N)c(C(=O)N[C@@H](CO)C4CC4)c3n2)cc2c1C(=O)N([C@@H](C)C(F)(F)F)C2

# Target: T2, Phosphatidylinositol 4,5-bisphosphate 3-kinase catalytic subunit delta isoform (Homo sapiens, UniProt O00329)
# T2 sequence (O00329 whole entry): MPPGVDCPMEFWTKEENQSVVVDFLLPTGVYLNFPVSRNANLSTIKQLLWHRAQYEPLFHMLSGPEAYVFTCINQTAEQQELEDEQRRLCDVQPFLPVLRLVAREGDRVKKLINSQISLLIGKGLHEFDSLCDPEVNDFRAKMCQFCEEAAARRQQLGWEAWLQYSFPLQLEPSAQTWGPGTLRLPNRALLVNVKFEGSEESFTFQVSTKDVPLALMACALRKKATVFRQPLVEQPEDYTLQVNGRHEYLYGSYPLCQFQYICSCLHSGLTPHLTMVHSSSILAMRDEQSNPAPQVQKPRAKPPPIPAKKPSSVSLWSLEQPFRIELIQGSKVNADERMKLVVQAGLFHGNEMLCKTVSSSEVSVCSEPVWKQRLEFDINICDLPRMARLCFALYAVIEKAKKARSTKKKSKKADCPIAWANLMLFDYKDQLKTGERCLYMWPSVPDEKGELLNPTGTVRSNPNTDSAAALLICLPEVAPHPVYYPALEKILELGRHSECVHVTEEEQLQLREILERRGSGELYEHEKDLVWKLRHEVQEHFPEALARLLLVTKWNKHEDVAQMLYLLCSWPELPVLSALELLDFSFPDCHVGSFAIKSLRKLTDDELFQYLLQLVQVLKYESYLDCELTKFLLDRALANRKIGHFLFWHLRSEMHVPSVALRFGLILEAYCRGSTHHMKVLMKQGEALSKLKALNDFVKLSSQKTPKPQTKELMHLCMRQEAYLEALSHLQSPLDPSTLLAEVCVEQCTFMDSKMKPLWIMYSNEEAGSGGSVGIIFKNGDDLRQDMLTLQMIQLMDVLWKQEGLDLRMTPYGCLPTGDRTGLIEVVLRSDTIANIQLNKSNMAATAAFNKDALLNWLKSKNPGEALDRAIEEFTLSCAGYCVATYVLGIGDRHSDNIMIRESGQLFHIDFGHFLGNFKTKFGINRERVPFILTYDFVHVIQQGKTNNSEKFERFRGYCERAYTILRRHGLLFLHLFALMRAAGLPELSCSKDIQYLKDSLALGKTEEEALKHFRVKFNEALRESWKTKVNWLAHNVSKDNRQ
# Assay: Inhibition of PI3Kdelta (unknown origin) using PIP2 as substrate preincubated for 1 hr followed by substrate addition and measured after 60 mins in presence of ATP by ADP-glo assay
# Details: not given
row,SMILES,IC50 [nM]
1,CC[C@H](N1Cc2cc(-c3ccn4nc(N)c(C(=O)NC5CC5)c4n3)cc(NS(C)(=O)=O)c2C1=O)C(F)(F)F,1310
2,Cc1cc(-c2ccn3nc(N)c(C(=O)N[C@H]4CC[C@H](C(=O)O)CC4)c3n2)cc2c1C(=O)N([C@@H](C)C1CC1)C2,20
3,C[C@@H](C1CC1)N1Cc2cc(-c3ccn4nc(N)c(C(=O)NC5CC5)c4n3)cc(OC(F)F)c2C1=O,2120

# Other lines, results leading:
row,IC50 [nM],SMILES
1,4530,Cc1cc(-c2ccn3nc(N)c(C(=O)N[C@H]4CC[C@H](N)CC4)c3n2)cc2c1C(=O)N([C@@H](C)C1CC1)C2
2,86,CNS(=O)(=O)c1cc(-c2ccn3nc(N)c(C(=O)N[C@@H](CO)C4CC4)c3n2)cc2c1C(=O)N([C@@H](C)C(F)(F)F)C2

# Species on record: Homo sapiens
# Assay: Selectivity ratio of IC50 for inhibition of PI3Kalpha (unknown origin) to IC50 for inhibition of PI3Kgamma (unknown origin)
# Details: not given
row,SMILES,Ratio IC50
1,Cc1cc(-c2ccn3nc(N)c(C(=O)N[C@H]4CC[C@H](C(=O)O)CC4)c3n2)cc2c1C(=O)N([C@@H](C)C1CC1)C2,13
2,C[C@@H](C1CC1)N1Cc2cc(-c3ccn4nc(N)c(C(=O)NC5CC5)c4n3)cc(OC(F)F)c2C1=O,330

# Second part, the molecule after the results:
row,Ratio IC50,SMILES
1,> 4960,Cc1cc(-c2ccn3nc(N)c(C(=O)N[C@H]4CC[C@H](N)CC4)c3n2)cc2c1C(=O)N([C@@H](C)C1CC1)C2
2,274,CNS(=O)(=O)c1cc(-c2ccn3nc(N)c(C(=O)N[C@@H](CO)C4CC4)c3n2)cc2c1C(=O)N([C@@H](C)C(F)(F)F)C2

# Species on record: Homo sapiens
# Assay: Selectivity ratio of IC50 for inhibition of PI3Kdelta (unknown origin) to IC50 for inhibition of PI3Kgamma (unknown origin)
# Details: not given
row,SMILES,Ratio IC50
1,CC[C@H](N1Cc2cc(-c3ccn4nc(N)c(C(=O)NC5CC5)c4n3)cc(NS(C)(=O)=O)c2C1=O)C(F)(F)F,403
2,Cc1cc(-c2ccn3nc(N)c(C(=O)N[C@H]4CC[C@H](C(=O)O)CC4)c3n2)cc2c1C(=O)N([C@@H](C)C1CC1)C2,9
3,C[C@@H](C1CC1)N1Cc2cc(-c3ccn4nc(N)c(C(=O)NC5CC5)c4n3)cc(OC(F)F)c2C1=O,907

# Further lines, results first:
row,Ratio IC50,SMILES
1,2250,Cc1cc(-c2ccn3nc(N)c(C(=O)N[C@H]4CC[C@H](N)CC4)c3n2)cc2c1C(=O)N([C@@H](C)C1CC1)C2
2,65,CNS(=O)(=O)c1cc(-c2ccn3nc(N)c(C(=O)N[C@@H](CO)C4CC4)c3n2)cc2c1C(=O)N([C@@H](C)C(F)(F)F)C2

# Target: CYP3A4 (Homo sapiens, UniProt P08684)
# Assay: in vitro
# Details: human liver microsomes, probe midazolam
# Description: Time dependent inhibition of CYP3A4 in human liver microsomes at 10 uM using midazolam as substrate preincubated for 30 mins in presence of NADPH by LC/MS/MS analysis relative to control
# CYP3A4, sequence (P08684 whole entry): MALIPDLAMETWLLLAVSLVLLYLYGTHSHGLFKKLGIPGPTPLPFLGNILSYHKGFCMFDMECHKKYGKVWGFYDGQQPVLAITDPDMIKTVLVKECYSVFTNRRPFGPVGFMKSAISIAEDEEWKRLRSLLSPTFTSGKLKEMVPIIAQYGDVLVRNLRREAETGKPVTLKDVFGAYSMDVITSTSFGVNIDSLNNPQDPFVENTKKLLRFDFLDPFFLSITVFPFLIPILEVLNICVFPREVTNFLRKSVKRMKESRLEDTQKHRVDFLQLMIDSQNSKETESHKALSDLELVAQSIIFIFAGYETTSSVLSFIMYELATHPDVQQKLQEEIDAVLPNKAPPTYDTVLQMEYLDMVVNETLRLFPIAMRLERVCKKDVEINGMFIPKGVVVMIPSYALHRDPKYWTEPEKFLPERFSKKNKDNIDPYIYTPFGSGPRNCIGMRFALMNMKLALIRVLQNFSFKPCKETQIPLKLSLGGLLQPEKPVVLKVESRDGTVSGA
row,"inhibition at 30 min, 10 µM [%]",SMILES
1,62,CC[C@H](N1Cc2cc(-c3ccn4nc(N)c(C(=O)NC5CC5)c4n3)cc(NS(C)(=O)=O)c2C1=O)C(F)(F)F
2,67,Cc1cc(-c2ccn3ncc(-c4cnn(C)c4)c3n2)cc2c1C(=O)N([C@@H](C)C1CC1)C2
3,16,C[C@@H](C1CC1)N1Cc2cc(-c3ccn4nc(N)c(C(=O)NC5CC5)c4n3)cc(OC(F)F)c2C1=O
